Source: publication PMC9781003, “Two Antenna-Enriched Odorant Binding Proteins in Dioryctria abietella Tuned to General Odorants and Insecticides” (Insects, 2022)
Read-outs that look alike come from different tables or passages of the source.

Experiments:
DabiOBP14 = assay type: binding, Dioryctria abietella; details: for OBP14 F.D. (%) fluorescence displacement percent: ligand at 20 μM, DabiOBP14/1-NPN each 2 μM, Tris-HCl pH 7.4, NB = no binding; for Ki: competitive displacement of 1-NPN, three replicates, mean ± SE, read-out: OBP14 Ki (dissociation constant)
Protocol: (§1) In the binding assays, we selected 100 compounds derived from host/non-host plants and man-made insecticides widely used for the control of lepidopteran pests, representing 88 general odorants (21 esters, 21 alcohols, 14 aldehydes, 13 alkenes, seven ketones, 11 alkanes and one acid) and 12 insecticides. These compounds and N-phenyl-1-naphthylamine (1-NPN) were purchased from Aladdin and Sigma-Aldrich, with the highest available purity. They were first diluted into 100 mM, using methanol (HPLC purity grade, ≥99.9%) as a stock solution. The concentrations of the work solution for each ligand and 1-NPN were set at 1 mM.
In order to measure the binding properties of the DabiOBPs to the 100 ligands, competitive binding assays were performed on a RF5301PC fluorescence spectrophotometer (Shimadzu, Japan). The concentrations of DabiOBPs and the fluorescent probe 1-NPN were set at 2 μM. The binding of DabiOBPs to 1-NPN in 20 mM Tris-HCl buffer (pH 7.4) was measured by adding final concentrations of 2–16 μM 1-NPN. Accordingly, binding constants (K1-NPN) of the DabiOBPs and 1-NPN were calculated using GraphPad Prism 7 (GraphPad Software Inc., San Diego, CA). The binding of the DabiOBPs to various ligands was conducted by adding different concentrations of ligands (2, 4, 6, 8, 12, 16 and 20 μM) into the DabiOBP5/1-NPN (each 2 μM) or DabiOBP14/1-NPN (each 2 μM) mixtures. For the ligands replacing over a half of 1-NPN fluorescence (50%) at 20 μM, three replicates were performed. The excitation wavelength was set at 337 nm and the emission peaks were recorded at around 400 nm. The dissociation constants (Ki) of the tested ligands to DabiOBPs were computed, using the equation: Ki = [IC50]/(1 + [1-NPN]/K1-NPN), where [1-NPN] was the free concentration of 1-NPN and IC50 was the concentration of ligands replacing 50% of 1-NPN fluorescence.

DabiOBP5 = molecular target: T1, DabiOBP5 (Dioryctria abietella, UniProt A0A8E6HS34); assay: Competitive fluorescence binding assay with 1-NPN probe, recombinant DabiOBP5
T1 sequence (A0A8E6HS34 19-139): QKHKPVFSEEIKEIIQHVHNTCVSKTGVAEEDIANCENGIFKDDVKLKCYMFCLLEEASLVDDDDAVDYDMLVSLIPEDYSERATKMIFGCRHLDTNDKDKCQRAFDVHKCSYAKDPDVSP
Description: as §1, with “They were first diluted into 100 mM, using methanol (HPLC purity grade, ≥99.9%) as a stock solution.” left out
In order to measure the binding properties of the DabiOBPs to the 100 ligands, competitive binding assays were performed on a RF5301PC fluorescence spectrophotometer (Shimadzu, Japan). The concentrations of DabiOBPs and the fluorescent probe 1-NPN were set at 2 μM. […] Accordingly, binding constants (K1-NPN) of the DabiOBPs and 1-NPN were calculated using GraphPad Prism 7 (GraphPad Software Inc., San Diego, CA). […] For the ligands replacing over a half of 1-NPN fluorescence (50%) at 20 μM, three replicates were performed. The excitation wavelength was set at 337 nm and the emission peaks were recorded at around 400 nm.

[1] = ligand at 20 μM; DabiOBP5/1-NPN each 2 μM; Tris-HCl pH 7.4; NB = no binding
[2] = ligand at 20 μM; DabiOBP5/1-NPN each 2 μM; Tris-HCl pH 7.4; NB = no binding; read-out: OBP5 F.D. (%) fluorescence displacement percent
[3] = competitive displacement of 1-NPN; three replicates; mean ± SE; read-out: OBP5 Ki (dissociation constant)

Row | Molecule | OBP14 F.D. (%) fluorescence displacement percent (DabiOBP14) | inhibition at 20 µM (DabiOBP5; [2]) | further results
1 | C=CC(C)=CCC=C(C)C [Ocimene] | 33.18% | – | OBP5 F.D. (%) fluorescence displacement percent (DabiOBP5; [1]): 33.97%
2 | COC(=O)c1ccccc1 [Methyl benzoate] | 30.65% | 30.5% | –
3 | CCCCCCCCCCCC(=O)O [Lauric acid] | 30.18% | – | OBP5 F.D. (%) fluorescence displacement percent (DabiOBP5; [1]): 33.87%
4 | CCCCCCCCCCCCCC [Tetradecane] | 27.13% | 25% | –
5 | CC(=O)/C=C/C1=C(C)CCCC1(C)C [β-Ionone] | 62.86% | 59.5% | Ki (DabiOBP14; listed as β-ionone): < 13 µM; Ki (DabiOBP14): 8.39 ± 1.04 µM; Ki (DabiOBP5; competitive displacement of 1-NPN; three replicates; mean ± SE; listed as β-ionone; read-out: OBP5 Ki (dissociation constant)): < 13 µM; Ki (DabiOBP5; [3]): 9.11 ± 1.03 µM
6 | CCC/C=C/CO [E2-Hexen-1-ol] | 18.64% | – | OBP5 F.D. (%) fluorescence displacement percent (DabiOBP5; [1]): 36.50%
7 | CCCCCCCCCCCC=O [Dodecanal] | 3.43% | 30.6% | –
8 | CCCCCCCCCC=O [Decanal] | 21.35% | 29.1% | –
9 | O=C(NC(=O)c1c(F)cccc1F)Nc1ccc(Cl)cc1 [Diflubenzuron] | 30.33% | 21.4% | –
10 | CC1=CC=C(C(C)C)CC1 [α-Terpinene] | 27.93% | 35.1% | –
11 | CCCCCCCCCCOC(C)=O [Decyl acetate] | 15.15% | 26.2% | –
12 | CC/C=C\CCO [Z3-Hexen-1-ol] | 24.52% | – | OBP5 F.D. (%) fluorescence displacement percent (DabiOBP5; [1]): 28.57%
13 | C=CC(=C)CCC=C(C)C [Myrcene] | 34.84% | 37.1% | –
14 | CCCCCCCCO [1-Octanol] | 35.51% | 35% | –
15 | CCCCCCCCCCC=O [Undecanal] | 35.28% | 27.8% | –
16 | CCC/C=C/C=O [E2-Hexenal] | 32.34% | – | OBP5 F.D. (%) fluorescence displacement percent (DabiOBP5; [1]): 33.10%
17 | CCCCCCOC(C)=O [Hexyl acetate] | 29.22% | 23.7% | –
18 | CC1=C(C=O)C(C)(C)CCC1 [β-Cyclocitral] | 32.77% | – | OBP5 F.D. (%) fluorescence displacement percent (DabiOBP5; [1]): 32.90%

Row | Molecule | OBP14 F.D. (%) fluorescence displacement percent (DabiOBP14) | inhibition at 20 µM (DabiOBP5; [2]) | further results
19 | CCCC(=O)CC [3-Hexanone] | 36.58% | 25.3% | –
20 | C=CC(C)(O)CCC=C(C)C (stereo not drawn) [Linalool] | 31.71% | 33.3% | –
21 | O=C1CCC[C@@H]2[C@H]3CCCN4CCC[C@@H](CN12)[C@@H]34 [Matrine] | 29.59% | 29% | –
22 | CCCCC=CCCO [3-Octenol] | 31.31% | 25.1% | –
23 | C=C(C)[C@H]1CC=C(C)CC1 [Limonene] | 30.81% | – | OBP5 F.D. (%) fluorescence displacement percent (DabiOBP5; [1]): 38.31%
24 | CCCCCCCCCCCC(=O)OC [Methyl laurate] | 12.60% | 7.25% | –
25 | CCOP(=S)(OCC)Oc1nc(Cl)c(Cl)cc1Cl [Chlorpyrifos] | 72.41% | – | Ki (DabiOBP14; listed as chlorpyrifos): < 13 µM; Ki (DabiOBP14): 4.62 ± 0.46 µM; inhibition at 20 µM (DabiOBP5; pH 7.4, read-out: OBP5 F.D. (%) fluorescence displacement percent): 66.1%; Ki (DabiOBP5; read-out: OBP5 Ki (dissociation constant); competitive displacement of 1-NPN; three replicates; mean ± SE): 5.92 ± 0.48 µM; Ki (DabiOBP5; read-out: OBP5 Ki (dissociation constant); competitive displacement of 1-NPN; three replicates; mean ± SE; listed as chlorpyrifos): < 13 µM
26 | CCCCC/C=C\C=C\C(=O)OCC [Ethyl-(2E,4Z)-decadienoate] | 68.07% | – | Ki (DabiOBP14; listed as ethyl-(2E,4Z)-decadienoate): < 13 µM; Ki (DabiOBP14): 6.45 ± 0.43 µM; Ki (DabiOBP5; competitive displacement of 1-NPN; three replicates; mean ± SE; listed as ethyl-(2E,4Z)-decadienoate; read-out: OBP5 Ki (dissociation constant)): < 13 µM; Ki (DabiOBP5; [3]): 5.67 ± 0.55 µM; OBP5 F.D. (%) fluorescence displacement percent (DabiOBP5; [1]): 69.83%
27 | CCCCCCCCCCCCCCCCCCCCCCC [Tricosane] | 27.90% | 32.8% | –
28 | CC1=CC[C@@H](C(C)(C)O)CC1 [α-Terpineol] | 30.28% | 33.9% | –
29 | CCCCCCCCOC(C)=O [Octyl acetate] | 30.09% | 35.4% | –
30 | CCCCCCCCCCC [Undecane] | 6.47% | 4.42% | –
31 | CCCCCCCCCCCCCCCCCC [Octadecane] | 23.94% | 26.5% | –
32 | Farnesene | 17.77% | – | OBP5 F.D. (%) fluorescence displacement percent (DabiOBP5; [1]): 40.68%
33 | CCCCCOC(C)=O [Amyl acetate] | 25.00% | – | OBP5 F.D. (%) fluorescence displacement percent (DabiOBP5; [1]): 26.33%
34 | CCCCCCCCCOC(C)=O [Nonyl acetate] | 22.98% | 16.5% | –
35 | CC(C)=CCC/C(C)=C/CO [Geraniol] | 28.67% | 32.9% | –
36 | CC(C)=CCC/C(C)=C/CC/C(C)=C/CC/C=C(\C)CC/C=C(\C)CCC=C(C)C [Squalene] | 24.81% | 32.3% | –
